Reference: publication PMC10148158, “Mechanism and linkage specificities of the dual retaining β-Kdo glycosyltransferase modules of KpsC from bacterial capsule biosynthesis” (The Journal of Biological Chemistry, 2023)

Target: T1, KpsC-NEc (E. coli KpsC^2-323) (Escherichia coli, UniProt A0A0H2Z2W8)
T1 construct: N-terminal GT module, residues 2-323, His6-tag kept, expressed in E. coli BL21(DE3)
Test: LC-MS of intact protein
Format: biochemical
Details: covalent; Kdo on Asp160; CMP-Kdo made in situ by KdsB; no acceptor

T1 sequence (A0A0H2Z2W8 entry or part of it): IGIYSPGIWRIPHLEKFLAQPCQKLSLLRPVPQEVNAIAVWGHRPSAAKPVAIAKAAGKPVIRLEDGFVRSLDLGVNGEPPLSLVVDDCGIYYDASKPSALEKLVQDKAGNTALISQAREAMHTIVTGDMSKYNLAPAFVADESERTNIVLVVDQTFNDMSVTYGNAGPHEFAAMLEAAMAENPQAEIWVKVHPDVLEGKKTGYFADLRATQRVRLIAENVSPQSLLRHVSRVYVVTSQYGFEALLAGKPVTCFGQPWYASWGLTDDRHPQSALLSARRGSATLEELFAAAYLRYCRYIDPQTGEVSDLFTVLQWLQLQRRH

Nc1ccn([C@@H]2O[C@H](COP(=O)(O)O[C@@]3(C(=O)O)C[C@@H](O)[C@@H](O)[C@@H]([C@H](O)CO)O3)[C@@H](O)[C@H]2O)c(=O)n1 [CMP-Kdo]
Kdo adduct mass increase: The native KpsC-NEc enzyme therefore appears capable of forming covalent Kdo adducts in vitro.
